Experimental data taken from patent US8101773B2, “Hydroxy methyl phenyl pyrazolyl urea compounds useful in the treatment of cancer” (Bayer Healthcare LLC, priority 2006, dated 2012).
Where a chain is given by its changes, count along the chain named. Where a name gives a salt, the structure may show the parent alone.

Tests used:
Bcr-Abl E255K mutant = settings: cited from earlier work
Bcr-Abl kinase = settings: greater potency than Imatinib; cited from earlier work
[1] = system: Imatinib-resistant Bcr-Abl mutations; settings: cited from earlier work
[2] = biological target: T1, mutant Bcr-Abl-T3151 kinase (Homo sapiens, UniProt P00519, T315I); assay: Bcr-Abl mutant T315I biochemical assay (MBP phosphorylation, 33P-ATP); settings: 50 μM ATP
T1 sequence (P00519 242-493 T315I limits assumed): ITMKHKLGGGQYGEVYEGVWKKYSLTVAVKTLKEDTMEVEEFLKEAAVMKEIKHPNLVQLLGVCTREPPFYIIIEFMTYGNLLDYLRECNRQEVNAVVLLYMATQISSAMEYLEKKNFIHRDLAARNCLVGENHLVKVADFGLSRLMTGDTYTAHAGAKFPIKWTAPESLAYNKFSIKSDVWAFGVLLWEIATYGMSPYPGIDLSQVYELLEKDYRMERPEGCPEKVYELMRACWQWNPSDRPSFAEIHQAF
Description: (§1) Bcr-Abl Wild Type and Mutant T315I Biochemical Assay
(§2) Bcr-Abl-wt or mutant Bcr-Abl-T3151 kinase (0.17 nM) was incubated with Myelin Basic Protein (MBP, 2 μM) in assay buffer consisting of 50 mM Tris pH 7.5, 10 mM MgCl2, 1 mM EGTA, 2 mM DTT, 50 μM ATP and 0.4 μCi of ^33P-ATP. Test compounds were added at varying concentrations (final DMSO conc=1%) prior to the addition of ATP. The reaction mixture was incubated for 1 hour at 32° C. The reaction was then stopped by addition of phosphoric acid (final conc=1%) and samples were transferred to filtermats and read in a betaplate reader. Inhibition of MBP phosphorylation by Bcr-Abl-wt or Bcr-Abl-T3151 was analyzed by using a 4 parameter fit and in-house software.

[3] = biological target: T2, human recombinant c-Met intracellular kinase domain (Homo sapiens, UniProt P08581); assay: c-Met biochemical assay, ELISA format; settings: 0.2 μM ATP
T2 construct: C-terminal HIS-tagged intracellular kinase domain (956 to 1390 amino acids) human recombinant c-Met; His tag (C)
T2 sequence (P08581 956-1390): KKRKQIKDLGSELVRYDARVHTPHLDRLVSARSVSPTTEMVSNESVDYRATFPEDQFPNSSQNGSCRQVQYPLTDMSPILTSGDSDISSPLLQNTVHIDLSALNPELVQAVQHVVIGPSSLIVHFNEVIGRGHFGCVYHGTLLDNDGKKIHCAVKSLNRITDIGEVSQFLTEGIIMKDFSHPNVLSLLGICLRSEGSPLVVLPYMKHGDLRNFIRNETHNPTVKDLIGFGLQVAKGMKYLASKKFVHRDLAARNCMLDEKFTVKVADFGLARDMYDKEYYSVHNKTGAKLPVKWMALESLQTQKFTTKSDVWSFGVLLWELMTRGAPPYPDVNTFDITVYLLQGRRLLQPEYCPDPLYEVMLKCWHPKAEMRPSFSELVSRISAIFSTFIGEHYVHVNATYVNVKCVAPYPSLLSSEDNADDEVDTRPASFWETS
Description: An ELISA format was used for the c-Met biochemical assay. This assay uses the C-terminal HIS-tagged intracellular kinase domain (956 to 1390 amino acids) human recombinant c-Met in 96-well plates. 96-Well plates (Costar #9018) coated with poly(GluTyr) (Sigma # P0275) were used in this assay. The poly(GluTyr) substrate coated on the plate was phosphorylated in a 100 μL reaction volume with 2 nM c-Met protein in an assay buffer (50 mM HEPES pH7.0, 5 mM MnCl2, 0.1% BSA, 0.5 mM sodium orthovanadate, 0.1% β-mercaptoethanol), with 0.2 μM ATP (Sigma #A7699). […] After 25 minutes of incubation, the assay reaction was stopped with 25 μL of 100 mM EDTA. The plates were then washed, and wells were treated with 100 μL of 80 ng/mL anti-4G10-HRP antibody (Upstate #16-105) for 1 h. Plates were washed one final time, and were developed with 100 μL 3,3′,5,5′-TMB (Sigma #T8665), and quenched with 100 μL 1M HCl. Plates were read on a Victor 2 plate reader (Perkin Elmer) and IC50 analysis and calculation were performed using in-house software.

[4] = biological target: T3, Flk-1 (murine VEGFR-2) kinase domain (Mus musculus, UniProt P35918); assay: Flk-1 (murine VEGFR-2) biochemical assay, TR-FRET; settings: 10 μM ATP
T3 construct: 7 nM Flk-1 (kinase domain)
T3 sequence (P35918 832-1160 limits assumed): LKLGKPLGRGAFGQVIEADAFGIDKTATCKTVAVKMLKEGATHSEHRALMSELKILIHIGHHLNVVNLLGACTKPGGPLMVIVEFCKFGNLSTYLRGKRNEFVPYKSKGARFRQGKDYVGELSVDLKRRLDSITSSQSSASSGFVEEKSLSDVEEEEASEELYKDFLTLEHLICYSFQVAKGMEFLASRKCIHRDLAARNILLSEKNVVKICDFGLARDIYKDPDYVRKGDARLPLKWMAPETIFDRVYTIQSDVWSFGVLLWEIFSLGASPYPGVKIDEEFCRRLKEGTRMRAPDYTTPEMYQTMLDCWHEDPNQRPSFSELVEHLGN
Description: Flk-1 (Murine VEGFR-2) Biochemical Assay
This assay was performed in 96-well opaque plates (Costar 3915) in the TR-FRET format. Reaction conditions were as follows: 10 μM ATP, 25 nM poly GT-biotin, 2 nM Eu-labelled phospho-Tyr Ab (PY20 Perkin Elmer), 10 nM APC (Perkin Elmer), 7 nM Flk-1 (kinase domain), 1% DMSO, 50 mM HEPES pH 7.5, 10 mM MgCl2, 0.1 mM EDTA, 0.015% BRIJ, 0.1 mg/mL BSA, 0.1% mercapto-ethanol). Reaction was initiated upon addition of enzyme. Final reaction volume in each well was 100 μL. Plates were read at both 615 and […] on a Perkin Elmer Victor V Multilabel counter at about 1.5-2.0 hours after reaction initiation. Signal was calculated as a ratio: (665 nm/615 nm)*10000 for each well.

Bcr-Abl-wt kinase = biological target: T4, Bcr-Abl-wt kinase (Homo sapiens, UniProt P00519); assay: Bcr-Abl wild type biochemical assay (MBP phosphorylation, 33P-ATP); settings: 50 μM ATP
T4 sequence (P00519 242-493 limits assumed): T1 sequence (P00519 242-493 T315I limits assumed) with I74T
Description: as §1, §2

[5] = In vitro tumor cell proliferation assay (Cell Titre-Glo), cell lines of interest; type: cell-based; settings: 72 hours, Cell Titer Glo; read-out: antiproliferative properties (IC50) in one or more cell lines of interest
From the text: In vitro Tumor Cell Proliferation Assay

early phase CML = settings: patients with early phase CML; cited from earlier work

| Compound | IC50 [2] [nM] | IC50 [3] [nM] | IC50 [4] [nM] | IC50 (Bcr-Abl-wt kinase) [nM] | IC50 [5] [nM] | inhibition of E255K mutant in a biochemical assay (Bcr-Abl E255K mutant) | potency of inhibition of Bcr-Abl kinase activity relative to Imatinib (Bcr-Abl kinase) [fold] | inhibition of Imatinib-resistant Bcr-Abl mutations [1] | degree of response at both haematological and cytogenetic levels (early phase CML) |
| --- | --- | --- | --- | --- | --- | --- | --- | --- | --- |
| Cc1cn(-c2cc(NC(=O)c3ccc(C)c(Nc4nccc(-c5cccnc5)n4)c3)cc(C(F)(F)F)c2)cn1 [AMN-107, nilotinib] | – | – | – | – | – | somewhat weak inhibition | 20 | inhibit most Imatinib-resistant Bcr-Abl mutations, except for T315I | – |
| CNC(=O)c1cc(Oc2ccc(NC(=O)Nc3cc(C(C)(C)C)nn3-c3cccc(COC(=O)[C@H](NC(=O)OCC4c5ccccc5-c5ccccc54)C(C)C)c3)c(F)c2)ccn1 [Example 8, 3-(3-tert-Butyl-5-{[(2-fluoro-4-{[2-(methylcarbamoyl)pyridin-4-yl]oxy}phenyl)carbamoyl]amino}-1H-pyrazol-1-yl)benzyl-N-[(9H-fluoren-9-ylmethoxy)carbonyl]D valinate] | < 20000 | < 20000 | – | – | – | – | – | – | – |
| CNC(=O)c1cc(Oc2ccc(NC(=O)Nc3cc(C(C)(C)C)nn3-c3cccc(COP(=O)(OC(C)(C)C)OC(C)(C)C)c3)c(F)c2)ccn1 [Example 12, Di-tert-butyl 3-(3-tert-butyl-5-{[(2-fluoro-4-{[2-(methylcarbamoyl)pyridin-4-yl]oxy}phenyl)carbamoyl]amino}-1H-pyrazol-1-yl)benzyl phosphate] | < 20000 | < 20000 | – | – | < 5000 | – | – | – | – |
| CNC(=O)c1cc(Oc2ccc(NC(=O)Nc3cc(C(C)(C)C)nn3-c3cccc(COP(=O)(O)O)c3)c(F)c2)ccn1 [Example 13, 3-(3-tert-Butyl-5-{[(2-fluoro-4-{[2-(methylcarbamoyl)pyridin-4-yl]oxy}-phenyl)carbamoyl]amino}-1H-pyrazol-1-yl)benzyl dihydrogen phosphate dihydrochloride] | – | – | – | – | < 5000 | – | – | – | – |
| CNC(=O)c1cc(Oc2ccc(NC(=O)Nc3cc(C(C)(C)C)nn3-c3cccc(COC(=O)COC)c3)c(F)c2)ccn1 [Example 15, 3-(3-tert-Butyl-5-{[(2-fluoro-4-{[2-(methylcarbamoyl)pyridin-4-yl]oxy}phenyl)carbamoyl]amino}-1H-pyrazol-1-yl)benzyl methoxyacetate] | < 1000 | < 1000 | < 1000 | < 1000 | – | – | – | – | – |
| CCC(=O)OCc1cccc(-n2nc(C(C)(C)C)cc2NC(=O)Nc2ccc(Oc3ccnc(C(=O)NC)c3)cc2F)c1 [Example 16, 3-(3-tert-butyl-5-{[(2-fluoro-4-{[2-(methylcarbamoyl)pyridin-4-yl]oxy}phenyl)carbamoyl]amino}-1H-pyrazol-1-yl)benzyl propionate] | < 1000 | < 1000 | < 1000 | < 1000 | – | – | – | – | – |
| CNC(=O)c1cc(Oc2ccc(NC(=O)Nc3cc(C(C)(C)C)nn3-c3cccc(COC(=O)CC(C)C)c3)c(F)c2)ccn1 [Example 17, 3-(3-tert-Butyl-5-{[(2-fluoro-4-{[2-(methylcarbamoyl)pyridin-4-yl]oxy}phenyl)carbamoyl]amino}-1H-pyrazol-1-yl)benzyl 3-methylbutanoate] | < 20000 | < 20000 | – | – | – | – | – | – | – |
| Cc1ccc(NC(=O)c2ccc(CN3CCN(C)CC3)cc2)cc1Nc1nccc(-c2cccnc2)n1 [Imatinib] | – | – | – | – | – | – | – | – | greater than 90% |

Now from value to compound, other results behind:

| IC50 [2] [nM] | IC50 [3] [nM] | IC50 [4] [nM] | IC50 (Bcr-Abl-wt kinase) [nM] | IC50 [5] [nM] | Compound | inhibition of E255K mutant in a biochemical assay (Bcr-Abl E255K mutant) | potency of inhibition of Bcr-Abl kinase activity relative to Imatinib (Bcr-Abl kinase) [fold] | inhibition of Imatinib-resistant Bcr-Abl mutations [1] | degree of response at both haematological and cytogenetic levels (early phase CML) |
| --- | --- | --- | --- | --- | --- | --- | --- | --- | --- |
| < 1000 | < 1000 | < 1000 | < 1000 | < 5000 | CNC(=O)c1cc(Oc2ccc(NC(=O)Nc3cc(C(C)(C)C)nn3-c3cccc(COC(=O)[C@H](N)C(C)C)c3)c(F)c2)ccn1 [Example 9, 3-(3-tert-Butyl-5-{[(2-fluoro-4-{[2-(methylcarbamoyl)pyridin-4-yl]oxy}phenyl)-carbamoyl]amino}-1H-pyrazol-1-yl)benzyl D-valinate] | – | – | – | – |
| < 1000 | < 1000 | < 1000 | < 1000 | – | CNC(=O)c1cc(Oc2ccc(NC(=O)Nc3cc(C(C)(C)C)nn3-c3cccc(COC(=O)[C@@H](N)C(C)C)c3)c(F)c2)ccn1 [Example 10, 3-(3-tert-Butyl-5-{[(2-fluoro-4-{[2-(methylcarbamoyl)pyridin-4-yl]oxy}-phenyl)carbamoyl]amino}-1H-pyrazol-1-yl)benzyl L-valinate] | – | – | – | – |
| < 1000 | < 1000 | < 1000 | < 1000 | < 5000 | CNC(=O)c1cc(Oc2ccc(NC(=O)Nc3cc(C(C)(C)C)nn3-c3cccc(COC(C)=O)c3)c(F)c2)ccn1 [Example 11, 3-(3-tert-Butyl-5-{[(2-fluoro-4-{[2-(methylcarbamoyl)pyridin-4-yl]oxy}-phenyl)carbamoyl]amino}-1H-pyrazol-1-yl)benzyl acetate] | – | – | – | – |
| < 1000 | < 1000 | < 1000 | < 1000 | < 5000 | CNC(=O)c1cc(Oc2ccc(NC(=O)Nc3cc(C(C)(C)C)nn3-c3cccc(COC(=O)CCC(=O)O)c3)c(F)c2)ccn1 [Example 14, 4-{[3-(3-tert-Butyl-5-{[(2-fluoro-4-{[2-(methylcarbamoyl)pyridin-4-yl]oxy}-phenyl)carbamoyl]amino}-1H-pyrazol-1-yl)benzyl]oxy}-4-oxobutanoic acid] | – | – | – | – |
